Reference: patent US20080182880A1, “PIOGLITAZONE COMPOSITION” (priority 2006, published 2008)
Like-named read-outs stand apart in the source and are kept apart here.

Test: Comparative bioavailability of Trial 2 of Example 4 and ACTOS tablets 45 mg, open label randomized cross-over single dose study, fasting, 55 subjects
Assay type: in vivo
Conditions: human, plasma, oral, calculated from Table 6 results, single dose to humans
Procedure: In determining bioequivalence, for example, between two products such as a commercially available product and a proposed product, pharmacokinetic studies are conducted whereby each of the preparations is administered in a crossover study to volunteer subjects. Serum plasma samples are obtained at regular intervals and assayed for parent drug (or occasionally metabolite) concentrations. For a pharmacokinetic comparison, the plasma concentration data are used to assess key pharmacokinetic parameters such as area under the plasma concentration-time curve (AUC), peak concentration (Cmax) and time to peak plasma concentration (Tmax).
R represents reference product, i.e., ACTOS tablets 45 mg.
Study design: Open label randomized cross-over single dose study under fasting conditions.

CCc1ccc(CCOc2ccc(CC3SC(=O)NC3=O)cc2)nc1 (racemic) [Pioglitazone, (±)-5-[[4-[2-(5-ethyl-2-pyridinyl)ethoxy]phenyl]methyl]-2,4-]thiazolidinedione]
AUC(0-inf) (read-out: therapeutically equivalent range of plasma pioglitazone AUC0-∞): 12300 to 19100 ng·h/mL | AUC(0-inf) (read-out: therapeutically equivalent range of plasma pioglitazone AUC0-∞T): 11900 to 18500 ng·h/mL | Cmax (read-out: therapeutically equivalent range of plasma pioglitazone Cmax): 1030 to 1610 ng/mL
